Measurements taken from patent US20200339953A1, “HEMATOPOIETIC STEM AND PROGENITOR CELL THERAPY” (priority 2010, published 2020).
“Also recorded” adds a separate entry of the source.

Columns and labels:
CD34^+ cells [1] = assay: Competitive cAMP assay (LANCE cAMP detection kit); assay type: cell-based, human
Procedure: The cAMP assay was performed on CD34^+ cells using the LANCE® cAMP detection kit (Perkin Elmer Inc., Waltham, Mass.) according to the manufacturer's instructions. Briefly, 3,000 CD34^+ cells (Stem Cell Technologies, Vancouver, Canada) were aliquoted in each well of a 384-well opaque white plate in the recommended stimulation buffer. Assays were performed in triplicate for all conditions.
CD34^+ cells were placed on ice prior to being stimulated with DMSO or 16,16-dimethyl PGE2 at 4° C. For assays conducted at other temperatures, e.g., 25° C. or 37° C., DMSO or 16,16-dimethyl PGE2 was added to CD34^+ cells at room temperature and then the plates were incubated with DMSO or 16,16-dmPGE2 at the experimental temperature (25° C. or 37° C.).
CD34^+ cells were incubated for periods of 5, 15, 30, 60 or 120 minutes. Following the incubation period, detection buffer was added to the stimulated cells and cells were incubated for an additional 1 hour at room temperature in detection buffer, regardless of stimulation temperature. The assay plates were analyzed using an EnVision® 2104 Multilabel Reader (Perkin Elmer) according to the manufacturer's instructions.
A competitive cAMP assay was performed using CD34^+ cells to determine the effects of time (incubation for 15, 30, 60, or 120 minutes), temperature (incubation at 4° C., 25° C., or 37° C.), and final 16,16-dimethyl PGE2 concentration (1 μM, 10 μM, 50 μM, or 100 μM) on cAMP production in the cells.

CD34^+ cells [2] = assay: Whole genome expression arrays (Affymetrix GeneChip); assay type: cell-based, human
Procedure: Human umbilical cord blood and pre-isolated CD34^+ cells from human umbilical cord blood were purchased from Stem Cell Technologies Inc. (Vancouver, BC, Canada). Cells were incubated in either low molecular weight dextran with 5% human serum albumin media (LMD/5% HSA) or Stem Span media (Stem Cells Technology Inc.) for ex vivo treatment with 16,16-dimethyl PGE2. Total RNA was isolated from incubated cells using a Pico Pure RNA Isolation Kit (Molecular Devices, Sunnyvale, Calif.).
Biotinylated amplified RNA (aRNA) was prepared using the standard protocol for MessageAmp II aRNA Amplification Kit (Applied Biosystems/Ambion, Austin, Tex.) and the optional Second Round Amplification; the copy RNA (cRNA) was transcribed into biotin labeled aRNA using MessageAmp II Biotin Enhanced Kit (Applied Biosystems/Ambion, Austin, Tex.) according to the manufacturer's instructions. Biotin labeled aRNA was purified and fragmented according to the Applied Biosystems protocols. 20 μg of fragmented aRNA was hybridized to Human Genome U133 Plus 2.0 GeneChips (Affymetrix Inc., Santa Clara, Calif.) for 16 hrs at 45° C.
The GeneChips were washed and stained in the Affymetrix Fluidics Station 450 and scanned using the Affymetrix GeneChip Scanner 3000 7G. The image data were analyzed using Affymetrix Expression Console software and default analysis settings. GeneChip expression data were normalized by log scale robust multi-array analysis (RMA) and visualized in Spotfire for Genomics 3.1 (Tibco Spotfire, Palo Alto, Calif.). Pathway analysis was performed in MetaCore. (GeneGo, St. Joseph, Mich.).
GeneChip technology was used to determine the effects of time (incubation for 5, 15, 20, 30, 40, 60, 80, 100, 120, 180, or 240 minutes), temperature (incubation at 4° C., 25° C., or 37° C.), and final 16,16-dimethyl PGE2 concentration (0.1 μm, 1 μM, 10 μM, 50 μM, or 100 μM) on cellular gene expression.
Gene expression profiles were analyzed for CD34^+ cells incubated with 10 μM 16,16-dimethyl PGE2 at 37° C. for 5, 15, 30, 60, or 120 minutes. For incubation (e.g., treatment) periods less than 120 minutes, the cells were washed in media to remove the 16,16-dimethyl PGE2 and then the cells were incubated for the remaining period in media to allow time for changes in gene expression to take place (See FIG. 5).

[3] = system: human CD34^+ cord blood (hCD34^+ CB) cells; assay: In vitro chemotaxis assay towards SDF1α; assay type: cell-based; conditions: 10 μM, 4 hours, 37° C.; 50 ng/ml SDF1α vs DMSO or 0 ng/ml SDF1α
Procedure: Chemotaxis assays were performed using 96-well chemotaxis chambers, […] pore size polycarbonate membrane (Corning Inc., Corning, N.Y.) in accordance with manufacturer's instructions. Briefly, human CD34^+ cord blood (hCD34^+ CB) cells were obtained from All Cells and were thawed according to manufacturer's instruction. The cells were then treated for 4 hours at 37° C. with 16,16-dimethyl PGE2 or DMSO control at a concentration of 10 μM in StemSpan media (Stem Cell Technology, Vancouver, Canada). The cells were then washed by centrifugation (300 g for 10 minutes) and resuspended in transwell assay buffer (Phenol Red Free RPMI media (Mediatech), 0.5% lipid free BSA (Sigma-Aldrich) at a concentration of 40,000-60,000 cells/75 ul. Seventy-five μl of cell suspension was added to the upper chamber of the plate, while 235 μl of transwell assay media containing 0 or 50 ng/ml SDF1α (R&D system, Minneapolis, Minn.) was added to the bottom well. Total cell number in the lower well was obtained by flow cytometry, using 7AAD (BD Biosciences) to exclude dead cells, after 4 hours of incubation at 37° C., 5% CO2. […] Percent migration was calculated by dividing the number of the cells in the lower well by the total cell input multiplied by 100. Samples were analyzed in triplicate, the data was then averaged for statistical analysis.

Compound: CCCCC(C)(C)[C@H](O)/C=C/[C@H]1[C@H](O)CC(=O)[C@@H]1C/C=C\CCCC(=O)O [16,16-dimethyl PGE2]
- cAMP production compared to DMSO controls (CD34^+ cells [1]; 4° C., 1, 10, 50 and 100 μM, p>0.05): No statistically significant increase
- time in which the cAMP response reached maximal levels (CD34^+ cells [1]; 37° C.): 15 min
- cAMP activity compared to DMSO control (CD34^+ cells [1]; 37° C. and 25° C., 5 min up to 2 hours, 1, 10, 50 and 100 μM, p<0.001): statistically significant increase
- threshold concentration above which the cAMP response was relatively dose-insensitive (CD34^+ cells [1]; CD34+ cells): 10 µM
- incubation time of maximal cAMP response (CD34^+ cells [1]; CD34+ cells, FIG. 3): 30 to 60 min
- signature gene expression changes after very short incubation (CD34^+ cells [2]; 10 μM, 37° C., 5-15 minutes, assessed after 120 minutes total): minimal gene expression changes
- incubation time after which gene expression changes were apparent (CD34^+ cells [2]; 10 μM, 37° C., assessed after 120 minutes total): 30 min
- genes downregulated (CD34^+ cells [2]; 10 μM, 120 minutes, 37° C.): 243 genes
- genes modulated at a statistically significant level, total (CD34^+ cells [2]; 10 μM, 120 minutes, 37° C.): 608 genes
- genes upregulated (CD34^+ cells [2]; 10 μM, 120 minutes, 37° C.): 365 genes
- fold increase in CXCR4 expression (CD34^+ cells [2]; 10 μM, 120 minutes, 37° C., relative to DMSO/vehicle treated control): 18 fold
- fold increase in CREM expression (FIG. 4) (CD34^+ cells [2]; 10 μM, vs vehicle treated CD34+ cells): 8 fold
- Fold change (increases) AREG (CD34^+ cells [2]; Amphiregulin, CD34+ cells, 10 μM, 120 minutes, 37° C. vs DMSO): 23.32 fold
- gene expression changes at 100 μM at 4° C. and 25° C. compared with 10 μM at 37° C. (CD34^+ cells [2]; CD34+ cells): smaller gene expression changes
- gene expression associated with apoptosis or cell death (CD34^+ cells [2]; CD34+ cells incubated at 37° C.): no increase in gene expression associated with apoptosis or cell death; also recorded: no increase in gene expression of apopotosis or cell death associated genes
- concentration at which the full gene expression signature was reproduced (CD34^+ cells [2]; CD34+ cells, 120 minutes, 37° C., no further substantial changes above): 10 µM
- Fold change (increases) CXCR4 (CD34^+ cells [2]; CXC chemokine Receptor 4, CD34+ cells, 10 μM, 120 minutes, 37° C. vs DMSO): 7.33 fold
- Fold change (increases) DUSP4 (CD34^+ cells [2]; Dual specificity protein phosphatase 4, CD34+ cells, 10 μM, 120 minutes, 37° C. vs DMSO): 25.75 fold
- Fold change (increases) FOSL2 (CD34^+ cells [2]; Fos-related antigen 2, CD34+ cells, 10 μM, 120 minutes, 37° C. vs DMSO): 8.11 fold
- Fold change (increases) GEM (CD34^+ cells [2]; GTP-binding protein GEM, CD34+ cells, 10 μM, 120 minutes, 37° C. vs DMSO): 28.18 fold
- Fold change (increases) HAS1 (CD34^+ cells [2]; Hyaluronan synthase 1, CD34+ cells, 10 μM, 120 minutes, 37° C. vs DMSO): 55.83 fold
- Fold change (increases) NR4A2 (CD34^+ cells [2]; Nuclear receptor related 1 protein, CD34+ cells, 10 μM, 120 minutes, 37° C. vs DMSO): 22.30 fold
- Fold change (increases) REN (CD34^+ cells [2]; Renin, CD34+ cells, 10 μM, 120 minutes, 37° C. vs DMSO): 19.50 fold
- CXCR4 RNA expression (CD34^+ cells [2]; WCB or CD34+ cells, 10 μM, 2 hours, 37° C. vs DMSO or 10 μM 1 hour 4° C.): increase in CXCR4 RNA expression
- Fold change (increases) CREM (CD34^+ cells [2]; cAMP-responsive element modulator, CD34+ cells, 10 μM, 120 minutes, 37° C. vs DMSO): 12.90 fold
- Fold change (increases) COL1A1 (CD34^+ cells [2]; collagen, type I, alpha 1, CD34+ cells, 10 μM, 120 minutes, 37° C. vs DMSO): 10.50 fold
- number of migrating CD34+ cells [3]: significantly increased
